Data taken from patent US9796704B2, “Substituted quinazolines as receptor-type kinase inhibitors” (Symphony Evolution, Inc., priority 2002, dated 2017).

Assays:
EphB4 = EphB4 (Homo sapiens (Human), UniProt P54760); experiment: EphB4 kinase inhibition, 33P phosphoryl transfer assay (radiometric); assay type: biochemical
Description: Phosphorylated substrate products are quantified by scintillation spectrometry.
Kinase activity and compound inhibition are investigated using one or more of the three assay formats described below. The ATP concentrations are selected near its Michaelis-Menten constant (KM) for each individual kinase. Dose-response experiments are performed at ten different inhibitor concentrations in a 384-well plate format. […] These parameters are obtained by nonlinear regression algorithm built into ActivityBase software (available from ID Business Solutions Ltd., of Guildford, Surrey, UK). ^33P Phosphoryl Transfer Assay (Radiometric)
Greiner 384-well white clear bottom high binding plates (available from Greiner Bio-One, Inc., of Longwood, Fla.) are coated with 2 μg/well of protein or peptide substrate in a 50 μL volume overnight at ambient temperature. […] The coating solution is aspirated and the plates are washed once with 50 μL of assay buffer and padded dry. Subsequently compounds and enzymes are mixed with γ ^33P-ATP (3.3 μCi/nmol) in a total volume of 20 uL in suitable assay buffers (see Table 2). For example the final EphB4 reaction solution contains 20 mM TrisHCl, pH 7.5, 10 mM MgCl2, 0.01% Triton X-100, 0.1 mM NaVO3, 5 nM EphB4 enzyme and 5 μM ATP. […] The plates are subsequently washed 6-12 times with PBST or TBS buffer.

EGFR = EGFR (Homo sapiens (Human), UniProt P00533); experiment: EGFR kinase inhibition, luciferase-coupled chemiluminescent assay (LCCA); details: read-out: EGFR IC50
Chain of EGFR (P00533 672-1210): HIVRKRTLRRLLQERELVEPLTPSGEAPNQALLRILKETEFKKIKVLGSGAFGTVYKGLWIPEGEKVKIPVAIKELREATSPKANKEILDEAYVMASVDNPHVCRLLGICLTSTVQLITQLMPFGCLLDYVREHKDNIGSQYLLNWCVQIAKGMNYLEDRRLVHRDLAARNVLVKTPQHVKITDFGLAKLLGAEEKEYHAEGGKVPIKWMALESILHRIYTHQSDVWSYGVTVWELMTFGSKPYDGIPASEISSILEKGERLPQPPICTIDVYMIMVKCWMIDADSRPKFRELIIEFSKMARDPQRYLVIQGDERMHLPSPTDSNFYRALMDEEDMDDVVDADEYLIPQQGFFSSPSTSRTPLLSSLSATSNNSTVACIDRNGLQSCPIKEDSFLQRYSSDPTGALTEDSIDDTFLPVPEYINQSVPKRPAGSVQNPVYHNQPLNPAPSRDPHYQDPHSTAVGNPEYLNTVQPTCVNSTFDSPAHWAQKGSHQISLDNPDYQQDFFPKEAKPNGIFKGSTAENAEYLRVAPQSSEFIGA

EphA2 = EphA2 (Homo sapiens (Human), UniProt P29317); experiment: EphA2 kinase inhibition, luciferase-coupled chemiluminescent assay (LCCA); details: read-out: EphA2 IC50
Chain of EphA2 (P29317 598-890): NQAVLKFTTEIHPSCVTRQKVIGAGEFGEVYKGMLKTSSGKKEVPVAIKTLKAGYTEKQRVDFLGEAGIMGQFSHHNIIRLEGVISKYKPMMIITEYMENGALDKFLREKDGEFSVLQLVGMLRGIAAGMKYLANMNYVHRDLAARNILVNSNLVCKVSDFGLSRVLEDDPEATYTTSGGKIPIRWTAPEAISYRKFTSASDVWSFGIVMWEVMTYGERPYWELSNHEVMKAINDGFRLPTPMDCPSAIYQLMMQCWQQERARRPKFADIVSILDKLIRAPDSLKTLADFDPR
Description: Kinase activity and compound inhibition are investigated using one or more of the three assay formats described below. The ATP concentrations are selected near its Michaelis-Menten constant (KM) for each individual kinase. Dose-response experiments are performed at ten different inhibitor concentrations in a 384-well plate format. […] Typically H is close to unity.
In the LCCA assays, kinase activity is measured by the ATP consumption that is accurately measured by luciferase-coupled chemiluminescence. Greiner 384-well white clear bottom medium binding plates are used for LCCA. Briefly the kinase reaction is initiated by mixing compounds, ATP and kinases in a 20 μL volume. At the end of the kinase reaction, a 20 μL luciferase-luciferin mix is added and the chemiluminescent signal is read on a Wallac Victor^2 reader.

Chain of EphB4 (P54760 605-890): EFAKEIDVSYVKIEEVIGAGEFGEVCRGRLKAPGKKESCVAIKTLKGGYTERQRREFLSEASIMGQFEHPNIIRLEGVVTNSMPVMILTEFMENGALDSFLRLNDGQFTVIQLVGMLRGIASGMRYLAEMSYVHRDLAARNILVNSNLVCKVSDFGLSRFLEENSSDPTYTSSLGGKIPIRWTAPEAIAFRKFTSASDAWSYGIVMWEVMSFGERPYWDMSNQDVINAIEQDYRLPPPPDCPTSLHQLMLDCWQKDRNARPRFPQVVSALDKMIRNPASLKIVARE

IC50 (EphB4) [nM] | IC50 (EGFR) [nM] | IC50 (EphA2) [nM] | Structure (SMILES)
< 50 | < 50 | 50 to 1000 | COc1cc2c(Nc3ccc(Cl)c(Cl)c3)ncnc2cc1OC[C@H]1O[C@H](OC)[C@H](O)[C@@H](O)[C@@H]1O (stereo in doubt) [Example 194, methyl 6-O-[4-[(3,4-dichlorophenyl)amino]-6-(methyloxy)quinazolin-7-yl]-alpha-D-glucopyranoside]
1000 to 20000 | < 50 | 1000 to 20000 | COc1cc2c(Nc3cc(Cl)c(Cl)cc3F)ncnc2cc1OC[C@@H]1CO[C@H]2[C@@H]1OC[C@@H]2OC [Example 48, 1,4:3,6-dianhydro-5-deoxy-5-({[4-[(4,5-dichloro-2-fluorophenyl)amino]-6-(methyloxy)quinazolin-7-yl]oxy}methyl)-2-O-methyl-D-glucitol]
50 to 1000 | < 50 | 50 to 1000 | COc1cc2c(Nc3cccc(Cl)c3F)ncnc2cc1O[C@H]1CO[C@H]2[C@@H]1OC[C@@H]2OC [Example 71, 1,4:3,6-dianhydro-2-O-[4-[(3-chloro-2-fluorophenyl)amino]-6-(methyloxy)quinazolin-7-yl]-5-O-methyl-L-iditol]
50 to 1000 | < 50 | 50 to 1000 | COc1cc2c(Nc3ccc(Cl)c(Cl)c3)ncnc2cc1O[C@H]1CO[C@H]2[C@@H]1OC[C@@H]2OC [Example 72, 1,4:3,6-dianhydro-2-O-[4-[(3,4-dichlorophenyl)amino]-6-(methyloxy)quinazolin-7-yl]-5-O-methyl-L-iditol]
50 to 1000 | < 50 | 1000 to 20000 | CCO[C@H]1CO[C@H]2[C@@H]1OC[C@@H]2Oc1cc2ncnc(Nc3ccc(Br)c(Cl)c3)c2cc1OC [Example 74, 1,4:3,6-dianhydro-2-O-[4-[(4-bromo-3-chlorophenyl)amino]-6-(methyloxy)quinazolin-7-yl]-5-O-ethyl-L-iditol]
< 50 | < 50 | 50 to 1000 | COc1cc2c(Nc3cccc(Br)c3C)ncnc2cc1O[C@H]1CO[C@H]2[C@@H]1OC[C@@H]2OC [Example 75, 1,4:3,6-dianhydro-2-O-[4-[(3-bromo-2-methylphenyl)amino]-6-(methyloxy)quinazolin-7-yl]-5-O-methyl-L-iditol]
50 to 1000 | < 50 | 50 to 1000 | COc1cc2c(Nc3cccc(Cl)c3C)ncnc2cc1O[C@H]1CO[C@H]2[C@@H]1OC[C@@H]2OC [Example 76, 1,4:3,6-dianhydro-2-O-[4-[(3-chloro-2-methylphenyl)amino]-6-(methyloxy)quinazolin-7-yl]-5-O-methyl-L-iditol]
< 50 | < 50 | < 50 | COc1cc2c(Nc3cc(Cl)ccc3Cl)ncnc2cc1O[C@@H]1CO[C@@H]2[C@H]1OC[C@H]2F [Example 118, 1,4:3,6-dianhydro-2-deoxy-5-O-[4-[(2,5-dichlorophenyl)amino]-6-(methyloxy)quinazolin-7-yl]-2-fluoro-D-iditol]
50 to 1000 | < 50 | 50 to 1000 | COc1cc2c(Nc3ccc(Cl)c(Cl)c3)ncnc2cc1OCC1CN(C)CCO1 (stereo not drawn) [Example 151, N-(3,4-dichlorophenyl)-7-{[(4-methylmorpholin-2-yl)methyl]oxy}-6-(methyloxy)quinazolin-4-amine]
50 to 1000 | < 50 | 50 to 1000 | COc1cc2c(Nc3ccc(Cl)c(Cl)c3)ncnc2cc1OCC1CC1 [Example 182, 7-[(cyclopropylmethyl)oxy]-N-(3,4-dichlorophenyl)-6-(methyloxy)quinazolin-4-amine]
50 to 1000 | < 50 | 1000 to 20000 | COc1cc2c(Nc3ccc(Cl)c(Cl)c3)ncnc2cc1OC1CCCC1 [Example 184, 7-(cyclopentyloxy)-N-(3,4-dichlorophenyl)-6-(methyloxy)quinazolin-4-amine]
50 to 1000 | < 50 | 50 to 1000 | COc1cc2c(Nc3ccc(Cl)c(Cl)c3)ncnc2cc1OCCC1CCCCC1 [Example 185, 7-[(2-cyclohexylethyl)oxy]-N-(3,4-dichlorophenyl)-6-(methyloxy)quinazolin-4-amine]
< 50 | < 50 | 50 to 1000 | COc1cc2c(Nc3ccc(Cl)c(Cl)c3)ncnc2cc1OCC1CCCCC1 [Example 186, 7-[(cyclohexylmethyl)oxy]-N-(3,4-dichlorophenyl)-6-(methyloxy)quinazolin-4-amine]
50 to 1000 | < 50 | 50 to 1000 | COc1cc2c(Nc3ccc(Cl)c(Cl)c3)ncnc2cc1OCCC1OCCO1 [Example 188, N-(3,4-dichlorophenyl)-7-{[2-(1,3-dioxolan-2-yl)ethyl]oxy}-6-(methyloxy)quinazolin-4-amine]
50 to 1000 | < 50 | 50 to 1000 | COc1cc2c(Nc3ccc(Cl)c(Cl)c3)ncnc2cc1OCCC1OCCCO1 [Example 189, N-(3,4-dichlorophenyl)-7-{[2-(1,3-dioxan-2-yl)ethyl]oxy}-6-(methyloxy)quinazolin-4-amine]
50 to 1000 | < 50 | 50 to 1000 | COc1cc2c(Nc3ccc(Cl)c(Cl)c3)ncnc2cc1OCCN1CCOCC1 [Example 190, N-(3,4-dichlorophenyl)-6-(methyloxy)-7-[(2-morpholin-4-ylethyl)oxy]quinazolin-4-amine]
50 to 1000 | < 50 | 50 to 1000 | COc1cc2c(Nc3ccc(Cl)c(Cl)c3)ncnc2cc1OCCN1CCCC1 [Example 191, N-(3,4-dichlorophenyl)-6-(methyloxy)-7-[(2-pyrrolidin-1-ylethyl)oxy]quinazolin-4-amine]
50 to 1000 | < 50 | 1000 to 20000 | COc1cc2c(Nc3ccc(Cl)c(Cl)c3)ncnc2cc1OCCN1CCCCC1 [Example 192, N-(3,4-dichlorophenyl)-6-(methyloxy)-7-[(2-piperidin-1-ylethyl)oxy]quinazolin-4-amine]
50 to 1000 | < 50 | 50 to 1000 | COc1cc2c(Nc3ccc(Cl)c(Cl)c3)ncnc2cc1OCC(=O)N1CCOCC1 [Example 195, N-(3,4-dichlorophenyl)-6-(methyloxy)-7-[(2-morpholin-4-yl-2-oxoethyl)oxy]quinazolin-4-amine]
50 to 1000 | < 50 | 50 to 1000 | COc1cc2c(Nc3ccc(Cl)c(Cl)c3)ncnc2cc1OCc1nc(-c2ccc(O)c(C(N)=O)c2)cs1 [Example 200, 5-[2-({[4-[(3,4-dichlorophenyl)amino]-6-(methyloxy)quinazolin-7-yl]oxy}methyl)-1,3-thiazol-4-yl]-2-hydroxybenzamide]
50 to 1000 | < 50 | 50 to 1000 | COc1cc2c(Nc3ccc(Cl)c(Cl)c3)ncnc2cc1OCc1nc(-c2cccnc2)cs1 [Example 201, N-(3,4-dichlorophenyl)-6-(methyloxy)-7-{[(4-pyridin-3-yl-1,3-thiazol-2-yl)methyl]oxy}quinazolin-4-amine]
< 50 | < 50 | 50 to 1000 | COc1cc2c(Nc3ccc(Cl)c(Cl)c3)ncnc2cc1OCc1nc(N2CCOCC2)no1 [Example 205, N-(3,4-dichlorophenyl)-6-(methyloxy)-7-{[(3-morpholin-4-yl-1,2,4-oxadiazol-5-yl)methyl]oxy}quinazolin-4-amine]
